This note sets out measurements from PMC7915724 (2021).

Assay [1] deals with biotin-Pu24 (VEGF G-quadruplex) (DNA, G4) CCGGGGCGGGCCGGGGGCGGGGTC
The experiment in a line: SPR. The following applies: 100 mM KCl; 20 mM Tris-HCl pH 7.4, 25 °C; tested up to 50 μM.

The test system of assay [2] is biotin-Hairpin (duplex DNA) (DNA, hairpin, HEG (hexaethylene glycol) linker between 10 and 11) TATAGCTATATATAGCTATA
The assay is described as follows: SPR. The following applies: 100 mM KCl; 20 mM Tris-HCl pH 7.4, 25 °C; tested up to 50 μM.

The subject of assay [3] is biotin-Py24 (VEGF i-motif) (DNA, i motif) GACCCCGCCCCCGGCCCGCCCCGG
The assay is described as follows: SPR. The following applies: 100 mM KCl, 20 mM MES pH 5.5, 0.05% Tween-20, 25 °C.

For assay [4], the system named is FPu24 (DNA, G4) CCGGGGCGGGCCGGGGGCGGGGTC
The experiment in a line: MST. The note with it: 100 mM KCl (annealing buffer); 1 μM DNA; assay pH not stated.

The test system of assay [5] is FBCL2 (DNA, i motif) CAGCCCCGCTCCCGCCCCCTTCCTCCCGCGCCCGCCCCT
The experiment in a line: MST. The following applies: 100 mM KCl (annealing buffer); 1 μM DNA; assay pH not stated.

The test system of assay [6] is Pu24 (VEGF G-quadruplex) (DNA, G4) CCGGGGCGGGCCGGGGGCGGGGTC
The experiment in a line: TO displacement, fluorescence. The following applies: 100 mM KCl (annealing buffer); 1 μM DNA, 2 μM thiazole orange displaced; assay pH not stated.

The subject of assay [7] is BCL2 (DNA, i motif) CAGCCCCGCTCCCGCCCCCTTCCTCCCGCGCCCGCCCCT
The assay is described as follows: TO displacement, fluorescence. The note with it: 100 mM KCl (annealing buffer); 1 μM DNA, 2 μM thiazole orange displaced; assay pH not stated.

Assay [8] concerns FKRAS (DNA, i motif) GCCCGGCCCCCGCTCCTCCCCCGCCGGCCCGGCCCGGCCCCCTCCTTCTCCCCG
The assay is described as follows: MST. The following applies: 100 mM KCl (annealing buffer); 1 μM DNA; assay pH not stated.

For assay [9], the system named is c-kit (DNA, i motif) CCCCTCCCTCGCGCCCGCCCG
The experiment in a line: TO displacement, fluorescence. The following applies: 100 mM KCl (annealing buffer); 1 μM DNA, 2 μM thiazole orange displaced; assay pH not stated.

The test system of assay [10] is PDGFR-β (DNA, i motif) GCGTCCACCCTCCCTGCCCCGCCGCCCCCCCTTCTCCCAGC
The experiment in a line: TO displacement, fluorescence. The following applies: 100 mM KCl (annealing buffer); 1 μM DNA, 2 μM thiazole orange displaced; b21 gives lower bound of range as 8.01.

Assay [11] relates to Fc-kit (DNA, i motif) CCCCTCCCTCGCGCCCGCCCG
The assay is described as follows: MST. The following applies: 100 mM KCl (annealing buffer); 1 μM DNA; assay pH not stated.

For assay [12], the system named is Py24 (VEGF i-motif) (DNA, i motif) GACCCCGCCCCCGGCCCGCCCCGG
The experiment in a line: TO displacement, fluorescence. The note with it: 100 mM KCl (annealing buffer); 1 μM DNA, 2 μM thiazole orange displaced; assay pH not stated.

Assay [13] concerns FHairpin (duplex DNA) (DNA, hairpin, HEG linker between nucleotides 10 and 11 (joins the two TATAGCTATA halves)) TATAGCTATATATAGCTATA
The assay is described as follows: MST. The note with it: 1 μM DNA; assay buffer not stated.

The test system of assay [14] is biotin-Pu24 (VEGF G-quadruplex) (DNA, G4) CCGGGGCGGGCCGGGGGCGGGGTC
The assay is described as follows: SPR. The following applies: 100 mM KCl; 20 mM Tris-HCl pH 7.4, 25 °C; tested up to 50 μM. The source holds these as a separate data set.

The test system of assay [15] is FPy24 (DNA, i motif) GACCCCGCCCCCGGCCCGCCCCGG
The assay is described as follows: MST. The note with it: 100 mM KCl (annealing buffer); 1 μM DNA; assay pH not stated.

Assay [16] concerns FPDGFR-β (DNA, i motif) GCGTCCACCCTCCCTGCCCCGCCGCCCCCCCTTCTCCCAGC
The assay is described as follows: MST. The note with it: 100 mM KCl (annealing buffer); 1 μM DNA; assay pH not stated.

The subject of assay [17] is biotin-Hairpin (duplex DNA) (DNA, hairpin, HEG linker between nucleotides 10 and 11 (joins the two TATAGCTATA halves)) TATAGCTATATATAGCTATA
The experiment in a line: SPR. The note with it: 100 mM KCl; 20 mM Tris-HCl pH 7.4, 25 °C; tested up to 50 μM.

Assay [18] relates to KRAS (DNA, i motif) GCCCGGCCCCCGCTCCTCCCCCGCCGGCCCGGCCCGGCCCCCTCCTTCTCCCCG
The experiment in a line: TO displacement, fluorescence. The note with it: 100 mM KCl (annealing buffer); 1 μM DNA, 2 μM thiazole orange displaced; assay pH not stated.

The subject of assay [19] is Py24 (VEGF i-motif) (DNA, i motif) GACCCCGCCCCCGGCCCGCCCCGG
The experiment in a line: ITC. The note with it: 100 mM KCl, 30 mM KH2PO4, 30 mM K2HPO4; 1× BPES (1 mM EDTA) pH 5.0, 30 °C; Py24 titrated into 3c; one-site fit.

For the molecule `CC1(C)CC[C@]2(C(=O)N3CCC(N4CCCCC4)CC3)CC[C@]3(C)C(=CC[C@@H]4[C@@]5(C)CC[C@H](O)C(C)(C)[C@@H]5CC[C@]43C)[C@@H]2C1`, the KD in [1], in [2] and in assay [3] (tested up to 50 μM) was > 50 µM throughout.

Regarding `CC1(C)CC[C@]2(C(=O)NCCCNCCNCCCN)CC[C@]3(C)C(=CC[C@@H]4[C@@]5(C)CC[C@H](O)C(C)(C)[C@@H]5CC[C@]43C)[C@@H]2C1`, the KD was 47.9 µM in assay [4]; 95.1 µM in [5]; 37.8 µM in assay [8]; 43.3 µM in assay [11]; 91.4 µM in assay [13]; > 50 µM in assay [14]. The KD was 1.14 µM in assay [15]; 14.4 µM in assay [16]; > 50 µM in assay [17]; 1.95 µM in [3] (b20 prints 1.93); 1.13 µM in assay [19]. Besides, the DC50 in assay [6] was 8.29 µM; in assay [7], 16.1 µM; in assay [9], 14.7 µM; in assay [10], 8.08 µM; in assay [12] it was 3.19 µM; in [18], 13.1 µM.

For the molecule `CC1(C)CC[C@]2(C(=O)NCCNC(=O)/C=C/c3ccc(O)c(O)c3)CC[C@]3(C)C(=CC[C@@H]4[C@@]5(C)CC[C@H](O)C(C)(C)[C@@H]5CC[C@]43C)[C@@H]2C1`, the dissociation constant KD in assay [14] is > 50 µM; in assay [17] it was > 50 µM; in assay [3], 3.09 µM.

Turning to `CC1(C)CC[C@]2(C(=O)NCCNS(=O)(=O)N3CCOCC3)CC[C@]3(C)C(=CC[C@@H]4[C@@]5(C)CC[C@H](O)C(C)(C)[C@@H]5CC[C@]43C)[C@@H]2C1`, the KD is > 50 µM in assay [1], > 50 µM in assay [2] and 13.8 µM in [3].

As to `CC1(C)CC[C@]2(C(=O)NCCc3c[nH]cn3)CC[C@]3(C)C(=CC[C@@H]4[C@@]5(C)CC[C@H](O)C(C)(C)[C@@H]5CC[C@]43C)[C@@H]2C1`, the values for the KD in assay [1], in [2] and in [3] were > 50 µM, > 50 µM and 12.1 µM, respectively.

Consider `CC1(C)CC[C@]2(C(=O)NCc3cn(-c4ncccn4)nn3)CC[C@]3(C)C(=CC[C@@H]4[C@@]5(C)CC[C@H](O)C(C)(C)[C@@H]5CC[C@]43C)[C@@H]2C1`, for which the results for the KD in [1], in assay [2] and in assay [3] were > 50 µM, > 50 µM and 12.3 µM, respectively.

As to `CC1(C)CC[C@]2(C(=O)NCc3cn(CCC#N)nn3)CC[C@]3(C)C(=CC[C@@H]4[C@@]5(C)CC[C@H](O)C(C)(C)[C@@H]5CC[C@]43C)[C@@H]2C1`, the dissociation constant (KD) in assay [1] is > 50 µM; in assay [2] it was > 50 µM; in [3], 19.3 µM.

Take `CC1(C)CC[C@]2(C(=O)NCc3cn(CCC(=O)O)nn3)CC[C@]3(C)C(=CC[C@@H]4[C@@]5(C)CC[C@H](O)C(C)(C)[C@@H]5CC[C@]43C)[C@@H]2C1`: the KD in assay [1] was > 50 µM; in assay [2], > 50 µM; in [3], 13.0 µM.

With `CCN(CC)CCNC(=O)C1=C[C@]2(C)[C@H]3CC=C4[C@@H]5CC(C)(C)CC[C@]5(C(=O)OC)CC[C@@]4(C)[C@]3(C)CC[C@H]2C(C)(C)C1=O`, the equilibrium dissociation constant (KD) in [1], in [2] and in [3] (tested up to 50 μM) was > 50 µM in each case.

On to `CCOC(=O)Cn1cc(CNC(=O)[C@]23CCC(C)(C)C[C@H]2C2=CC[C@@H]4[C@@]5(C)CC[C@H](O)C(C)(C)[C@@H]5CC[C@@]4(C)[C@]2(C)CC3)nn1`, for which the equilibrium dissociation constant (KD) in assay [1], in [2] and in assay [3] (tested up to 50 μM) was > 50 µM in each case.

Regarding `COC(=O)[C@]12CCC(C)(C)C[C@H]1C1=CC[C@@H]3[C@@]4(C)C=C(C(=O)O)C(=O)C(C)(C)[C@@H]4CC[C@@]3(C)[C@]1(C)CC2`, the KD in assay [1], in assay [2] and in assay [3] (tested up to 50 μM) was > 50 µM each time.

With `COC(=O)[C@]12CCC(C)(C)C[C@H]1[C@H]1C(=O)C[C@@H]3[C@@](C)(CCC(=O)NCCCN(C)C)[C@H](C(C)(C)O)CC[C@@]3(C)[C@]1(C)CC2`, the dissociation constant KD in [1], in [2] and in assay [3] (tested up to 50 μM) was > 50 µM in each case.

On to `COC(=O)[C@]12CCC(C)(C)C[C@H]1[C@H]1C(=O)C[C@@H]3[C@@](C)(CCC(=O)NCCCn4ccnc4)[C@H](C(C)(C)O)CC[C@@]3(C)[C@]1(C)CC2`, for which the KD is > 50 µM in assay [1], > 50 µM in [2] and 21.1 µM in assay [3].

For `COc1ccc(C(=O)NCCNC(=O)[C@]23CCC(C)(C)C[C@H]2C2=CC[C@@H]4[C@@]5(C)CC[C@H](O)C(C)(C)[C@@H]5CC[C@@]4(C)[C@]2(C)CC3)c(OC)c1`, the KD in assay [1], in [2] and in [3] (tested up to 50 μM) was > 50 µM in each case.

`Cc1cn(CC(=O)NCCCNCCNCCCNC(=O)[C@]23CCC(C)(C)C[C@H]2C2=CC[C@@H]4[C@@]5(C)CC[C@H](O)C(C)(C)[C@@H]5CC[C@@]4(C)[C@]2(C)CC3)c(=O)[nH]c1=O`: the KD was > 50 µM in assay [14], > 50 µM in assay [17] and 5.01 µM in assay [3].
